Patent US12421205B2, “GLP-1 receptor agonist” (HYUNDAI PHARM CO., LTD., priority 2019, dated 2025)

Legend:
hERG = target: T1, hERG (Homo sapiens, UniProt Q12809); test: hERG inhibition test (Predictor hERG Fluorescence Polarization assay kit); assay type: binding; settings: probe kit Tracer (fluorescent hERG ligand), hERG % inhibition at 10 uM, relative to E-4031 and solvent control
T1 construct: purchased Invitrogen PV5365
In short: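 Competitive fluorescence-polarization binding of fluorescent tracer to hERG membrane preparation, 2.5 h at room temperature, mP read at 531/579 nm. % inhibition at 10 uM test compound, scaled between solvent control (0%) and E-4031 (100%).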

human GLP-1 receptor = target: T2, human GLP-1 receptor (Homo sapiens, UniProt P43220); test: cAMP activity test (cAMP dynamic HTRF kit) in CHO-K1/GLP-1 receptor-expressing cells; assay type: cell-based; settings: cAMP activity, CHO-K1/GLP-1 receptor-expressing cells; read-out: EC50
T2 construct: host or cells: CHO-K1
In short: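 Cells in HBSS with 0.1% BSA, 0.5 mM IBMX and 5 mM HEPES, then lysed; cAMP-d2 and anti-cAMP cryptate added for 3 h. HTRF read-out, where FRET signal is inversely proportional to intracellular cAMP.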

T1 sequence (Q12809 whole entry): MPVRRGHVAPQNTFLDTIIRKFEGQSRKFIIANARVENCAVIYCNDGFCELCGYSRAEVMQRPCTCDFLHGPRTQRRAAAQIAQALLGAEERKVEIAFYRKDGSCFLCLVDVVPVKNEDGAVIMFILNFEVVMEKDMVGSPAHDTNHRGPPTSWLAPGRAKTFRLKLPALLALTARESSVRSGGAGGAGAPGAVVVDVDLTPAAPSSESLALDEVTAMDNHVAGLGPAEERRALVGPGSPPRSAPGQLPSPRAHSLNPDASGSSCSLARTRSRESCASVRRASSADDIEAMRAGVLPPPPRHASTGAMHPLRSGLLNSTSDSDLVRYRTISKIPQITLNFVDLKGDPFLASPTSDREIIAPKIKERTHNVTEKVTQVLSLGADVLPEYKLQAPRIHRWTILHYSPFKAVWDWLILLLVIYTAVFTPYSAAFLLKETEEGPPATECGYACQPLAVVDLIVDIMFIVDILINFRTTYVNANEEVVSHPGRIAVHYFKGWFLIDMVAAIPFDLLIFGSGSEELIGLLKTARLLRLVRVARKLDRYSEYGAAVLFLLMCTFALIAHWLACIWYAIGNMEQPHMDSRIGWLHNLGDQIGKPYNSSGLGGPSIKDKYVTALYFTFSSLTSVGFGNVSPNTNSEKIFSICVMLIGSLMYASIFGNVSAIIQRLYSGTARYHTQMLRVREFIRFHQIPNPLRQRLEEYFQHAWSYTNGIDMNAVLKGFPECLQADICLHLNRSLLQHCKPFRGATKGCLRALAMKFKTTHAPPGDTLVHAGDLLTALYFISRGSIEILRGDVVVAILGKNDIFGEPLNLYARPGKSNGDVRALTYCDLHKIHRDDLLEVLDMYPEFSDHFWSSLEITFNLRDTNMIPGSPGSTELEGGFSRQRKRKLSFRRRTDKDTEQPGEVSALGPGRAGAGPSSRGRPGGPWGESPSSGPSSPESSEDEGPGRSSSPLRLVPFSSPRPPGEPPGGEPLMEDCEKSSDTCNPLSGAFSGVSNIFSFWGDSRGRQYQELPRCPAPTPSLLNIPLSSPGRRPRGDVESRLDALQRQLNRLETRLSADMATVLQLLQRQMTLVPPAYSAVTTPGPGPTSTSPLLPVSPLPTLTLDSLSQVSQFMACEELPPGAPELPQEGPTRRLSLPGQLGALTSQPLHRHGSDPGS
T2 sequence (P43220 24-463): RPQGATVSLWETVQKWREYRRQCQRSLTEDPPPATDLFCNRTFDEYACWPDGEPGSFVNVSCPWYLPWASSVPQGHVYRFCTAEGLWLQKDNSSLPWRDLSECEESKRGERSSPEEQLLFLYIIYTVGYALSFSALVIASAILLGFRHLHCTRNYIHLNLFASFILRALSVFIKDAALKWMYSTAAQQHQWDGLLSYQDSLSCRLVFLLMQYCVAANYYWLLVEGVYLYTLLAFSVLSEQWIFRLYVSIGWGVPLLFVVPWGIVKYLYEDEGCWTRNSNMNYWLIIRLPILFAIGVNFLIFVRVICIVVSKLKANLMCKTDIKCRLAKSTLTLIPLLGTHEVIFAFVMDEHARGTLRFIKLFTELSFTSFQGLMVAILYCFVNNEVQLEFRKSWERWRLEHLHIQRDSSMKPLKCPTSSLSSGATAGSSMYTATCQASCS

EC50 (human GLP-1 receptor)	SMILES	inhibition at 2.5 h, 10 µM (hERG)
78 nM	O=C(O)c1ccc2nc(Cc3ccc(-c4ccc(F)c(OCc5ccc(Cl)cc5F)c4)c(F)c3)n(CC3CCCO3)c2c1 (centres unmarked) [Example 92, 2-((3′-(4-chloro-2-fluorobenzyloxy)-2,4′-difluorobiphenyl-4-yl)methyl)-1-((tetrahydrofuran-2-yl)methyl)-1H-benzo[d]imidazole-6-carboxylic acid]	8.68%
5.8 nM	O=C(O)c1ccc2nc(Cc3ccc(-c4cccc(OCc5ccc(Cl)cc5F)n4)cc3F)n(C[C@@H]3CCCO3)c2c1 [Example 59, (S)-2-(4-(6-(4-chloro-2-fluorobenzyloxy)pyridin-2-yl)-2-fluorobenzyl)-1-((tetrahydrofuran-2-yl)methyl)-1H-benzo[d]imidazole-6-carboxylic acid]	-21%
39 nM	COCCn1c(Cc2ccc(-c3cccc(OCc4ccc(Cl)cc4F)n3)cc2C)nc2ccc(C(=O)O)cc21 [Example 53, 2-(4-(6-(4-chloro-2-fluorobenzyloxy)pyridin-2-yl)-2-methylbenzyl)-1-(2-methoxyethyl)-1H-benzo[d]imidazole-6-carboxylic acid]	18.7%
63 nM	COCCn1c(Cc2ccc(-c3cccc(OCc4ccc(Cl)cc4F)n3)cc2)nc2ccc(C(=O)O)cc21 [Example 2, 2-(4-(6-(4-chloro-2-fluorobenzyloxy)pyridin-2-yl)benzyl)-1-(2-methoxyethyl)-1H-benzo[d]imidazole-6-carboxylic acid]	-11.9%
380 nM	N#Cc1ccc(COc2cccc(-c3ccn(Cc4nc5ccc(C(=O)O)cc5n4CC4CCCO4)c(=O)c3)c2)c(F)c1 (centres unmarked) [Example 107, 2-((4-(3-(4-cyano-2-fluorobenzyloxy)phenyl)-2-oxopyridin-1(2H)-yl)methyl)-1-((tetrahydrofuran-2-yl)methyl)-1H-benzo[d]imidazole-6-carboxylic acid]	2.7%

The next lines start with the compound.

SMILES	EC50 (human GLP-1 receptor)	inhibition at 2.5 h, 10 µM (hERG)
O=C(O)c1ccc2nc(Cn3ccc(-c4cccc(OCc5ccc(Cl)cc5F)n4)cc3=O)n(C[C@@H]3CCCO3)c2c1 [Example 108, (S)-2-((4-(6-(4-chloro-2-fluorobenzyloxy)pyridin-2-yl)-2-oxopyridin-1(2H)-yl)methyl)-1-((tetrahydrofuran-2-yl)methyl)-1H-benzo[d]imidazole-6-carboxylic acid]	130 nM	4%
O=C(O)c1ccc2nc(Cc3ccc(-c4cccc(OCc5ccc(Cl)cc5F)n4)c(F)c3)n(C[C@@H]3CCO3)c2c1 [Example 79, (S)-2-(4-(6-(4-chloro-2-fluorobenzyloxy)pyridin-2-yl)-3-fluorobenzyl)-1-(oxetan-2-ylmethyl)-1H-benzo[d]imidazole-6-carboxylic acid]	< 3.2 nM	-2.04%
O=C(O)c1ccc2nc(Cc3ccc(-c4cccc(OCc5ccc(F)c(F)c5)n4)c(F)c3)n(C[C@@H]3CCO3)c2c1 [Example 125, (S)-2-(4-(6-((3,4-difluorobenzyl)oxy)pyridin-2-yl)-3-fluorobenzyl)-1-(oxetan-2-ylmethyl)-1H-benzo[d]imidazole-6-carboxylic acid]	37 nM	-19.5%
O=C(O)c1ccc2nc(Cc3ccc(-c4cccc(OCc5cccnc5)n4)c(F)c3)n(C[C@@H]3CCO3)c2c1 [Example 129, (S)-2-(3-fluoro-4-(6-(pyridin-3-ylmethoxy)pyridin-2-yl)benzyl)-1-(oxetan-2-ylmethyl)-1H-benzo[d]imidazole-6-carboxylic acid]	490 nM	-6.27%
N#Cc1ccc(COc2cccc(-c3ccc(Cc4nc5ccc(C(=O)O)cc5n4C[C@@H]4CCO4)cc3F)n2)c(F)c1 [Example 74, (S)-2-(4-(6-(4-cyano-2-fluorobenzyloxy)pyridin-2-yl)-3-fluorobenzyl)-1-(oxetan-2-ylmethyl)-1H-benzo[d]imidazole-6-carboxylic acid]	5.8 nM	-16.2%
